Measured values published in US7407667B2, “Pesticidal preparations comprising copolymers” (Clariant Produkte (Deutschland) GmbH, priority 2001, dated 2008).

Assays:
Type in all cases: in vivo
[1] = test system: Sesbania exaltata (SEBEX); experiment: Greenhouse herbicidal action of glyphosate test formulations, plant growth assessed on a % scale; conditions: copolymer 600 g/ha where named, 300 l/ha, after 21 days at 20° C.
Method: (§1) Test formulations were prepared with in each case 200 g, 300 g and 500 g of glyphosate and in each case 600 g of the copolymers I to V in 300 l of water. The data by weight refer to 100% active ingredient and 100% adjuvant. An amount of the formulation corresponding to the ratio 300 l/ha was applied in a greenhouse to the plant species Abutilon theophrasti (ABUTH), Sesbania exaltata (SEBEX), Pharbitis purpurea (PHBPU), Galium aparine (GALAP), Amaranthus retroflexus (AMARE) and Echinochloa crus-galli (ECHCG), and, after 21 days at 20° C., the plant growth was assessed according to a % scale.
(§2) 0% means no effect and 100% means complete destruction of the types of plant.

[2] = test system: Pharbitis purpurea (PHBPU); experiment: as above; conditions: copolymer 600 g/ha where named, 300 l/ha, after 21 days at 20° C.
Method: as §1, §2

[3] = test system: Amaranthus retroflexus (AMARE); experiment: as above; conditions: copolymer 600 g/ha where named, 300 l/ha, after 21 days at 20° C.
Method: as §1, §2

[4] = test system: Galium aparine (GALAP); experiment: as above; conditions: copolymer 600 g/ha where named, 300 l/ha, after 21 days at 20° C.
Method: as §1, §2

[5] = test system: Abutilon theophrasti (ABUTH); experiment: as above; conditions: copolymer 600 g/ha where named, 300 l/ha, after 21 days at 20° C.
Method: as §1, §2

[6] = test system: Echinochloa crus-galli (ECHCG); experiment: as above; conditions: copolymer 600 g/ha where named, 300 l/ha, after 21 days at 20° C.
Method: as §1, §2

[7] = test system: SEBEX, AMARE, GALAP, ABUTH, ECHCG, PHBPU (Total); experiment: Greenhouse herbicidal action of glyphosate test formulations, total over the six plant species; conditions: copolymer 600 g/ha where named
Method: as §1, §2

O=C(O)CNCP(=O)(O)O [Glyphosate, N-phosphonomethylglycine]
herbicidal action SEBEX ([1]; glyphosate 200 g/ha, 0% no effect, 100% complete destruction): 10% | herbicidal action SEBEX ([1]; glyphosate 300 g/ha): 15% | herbicidal action SEBEX ([1]; glyphosate 500 g/ha): 30% | herbicidal action PHBPU ([2]; glyphosate 200 g/ha): 10% | herbicidal action PHBPU ([2]; glyphosate 300 g/ha): 20% | herbicidal action PHBPU ([2]; glyphosate 500 g/ha): 40% | herbicidal action AMARE ([3]; glyphosate 200 g/ha): 20% | herbicidal action AMARE ([3]; glyphosate 300 g/ha): 45% | herbicidal action AMARE ([3]; glyphosate 500 g/ha): 65% | herbicidal action GALAP ([4]; glyphosate 200 g/ha): 5% | herbicidal action GALAP ([4]; glyphosate 300 g/ha): 20% | herbicidal action GALAP ([4]; glyphosate 500 g/ha): 40% | herbicidal action ABUTH ([5]; glyphosate 200 g/ha): 0% | herbicidal action ABUTH ([5]; glyphosate 300 g/ha): 10% | herbicidal action ABUTH ([5]; glyphosate 500 g/ha): 15% | herbicidal action ECHCG ([6]; glyphosate 200 g/ha): 15% | herbicidal action ECHCG ([6]; glyphosate 300 g/ha): 20% | herbicidal action ECHCG ([6]; glyphosate 500 g/ha): 40% | herbicidal action Total ([7]; glyphosate 200 g/ha): 10% | herbicidal action Total ([7]; glyphosate 300 g/ha): 22% | herbicidal action Total ([7]; glyphosate 500 g/ha): 38%
